According to paper PMC8016788 (Clinical Pharmacokinetics, 2021):
Read-outs that look alike come from different tables or passages of the source.

Columns and labels:
[1] = system: patients with non-diabetic kidney disease; conditions: primary result of the DIAMOND trial; cited from earlier work
[2] = 10 mg
[3] = clinical; conditions: human, plasma, oral, 10 mg
[4] = patients with type 2 diabetes and chronic kidney disease; model of van der Walt et al.; cited from earlier work

SMILES: CCOc1ccc(Cc2cc([C@@H]3O[C@H](CO)[C@@H](O)[C@H](O)[C@H]3O)ccc2Cl)cc1 [dapagliflozin]
- Effect on proteinuria in the DIAMOND trial [1]: did not decrease proteinuria
- Predicted median AUC0–inf ([2]; participants of 50 kg with mGFR 50 mL/min/1.73 m^2): 1100.3 (1016.1–1204.1) ng h/mL
- Predicted median AUC0–inf ([2]; participants of 70 kg with mGFR 15 mL/min/1.73 m^2): 1566.1 (1348.4–1855.4) ng h/mL
- Predicted median AUC0–inf ([2]; participants of 70 kg with mGFR 90 mL/min/1.73 m^2): 539.2 (483.5–600.4) ng h/mL
- Predicted median AUC0–inf ([2]; participants of 150 kg with mGFR 50 mL/min/1.73 m^2): 483.0 (445.5–527.8) ng h/mL
- AUC(0-inf) [3]: 741 ng·h/mL
- Vd/F [3]: 44.9 L
- Apparent clearance [4]: approximately 10.5 L/h
